Reference: patent publication US20260285850A1, “SUBSTITUTED OXAZOLIDINONES AND IMIDAZOLINONES AS HERBICIDES” (FMC CORPORATION, priority 2023, published 2026)

Columns and labels:
Assay type in all cases: in vivo
[1] = test system: barnyardgrass (Echinochloa crus-galli); assay: Test A preemergence soil spray, visual injury rating 0-100; details: 10 days; for Barnyardgrass plant response rating: 0 to 100 scale
From the text: (§1) Seeds of plant species selected from barnyardgrass (Echinochloa crus-galli), blackgrass (Alopecurus myosuroides), corn (Zea mays), foxtail, giant (giant foxtail, Setaria faberi), green foxtail (Setaria viridis), goosegrass (Eleusine indica), kochia (Bassia scoparia), oat, wild (wild oat, Avena fatua), palmer (palmer amaranth, palmer pigweed, Amaranthus palmeri), ragweed (common ragweed, Ambrosia artemisiifolia), ryegrass, Italian (italian ryegrass, Lolium multiflorum), soybean (Glycine max) and wheat (Triticum aestivum) were planted into a blend of loam soil and sand and treated preemergence with a directed soil spray using test chemicals formulated in a non-phytotoxic solvent mixture which included a surfactant.
(§2) At the same time, plants selected from these crops and weed species and also galium (catchweed bedstraw, Galium aparine) and horseweed (Erigeron canadensis) were planted in pots containing the same blend of loam soil and sand and treated with postemergence applications of test chemicals formulated in the same manner. Plants ranged in height from 2 to 10 cm and were in the one- to two-leaf stage for the postemergence treatment. Treated plants and untreated controls were maintained in a greenhouse for 10 days, after which time all treated plants were compared to untreated controls and visually evaluated for injury. Plant response ratings, summarized in Table A, are based on a 0 to 100 scale where 0 is no effect and 100 is complete control. A dash (-) response means no test result.

[2] = test system: blackgrass (Alopecurus myosuroides); assay: as above; details: 10 days; for Blackgrass plant response rating: 0 to 100 scale
From the text: as §1, §2

[3] = test system: corn (Zea mays); assay: as above; details: 10 days; for Corn plant response rating: 0 to 100 scale
From the text: as §1, §2

[4] = test system: kochia (Bassia scoparia); assay: as above; details: 10 days; for Kochia plant response rating: 0 to 100 scale
From the text: as §1, §2

[5] = test system: oat, wild (wild oat, Avena fatua); assay: as above; details: 10 days; for Oat, Wild plant response rating: 0 to 100 scale
From the text: as §1, §2

[6] = test system: palmer (palmer amaranth, palmer pigweed, Amaranthus palmeri); assay: as above; details: 10 days
From the text: as §1, §2

[7] = test system: ragweed (common ragweed, Ambrosia artemisiifolia); assay: as above; details: 10 days; for Ragweed plant response rating: 0 to 100 scale
From the text: as §1, §2

[8] = test system: ryegrass, Italian (italian ryegrass, Lolium multiflorum); assay: as above; details: 10 days; for Ryegrass, Italian plant response rating: 0 to 100 scale
From the text: as §1, §2

[9] = test system: soybean (Glycine max); assay: as above; details: 10 days; for Soybean plant response rating: 0 to 100 scale
From the text: as §1, §2

[10] = test system: wheat (Triticum aestivum); assay: as above; details: 10 days; for Wheat plant response rating: 0 to 100 scale
From the text: as §1, §2

[11] = test system: barnyardgrass (Echinochloa crus-galli); assay: Test A postemergence application, visual injury rating 0-100
From the text: as §1, §2

[12] = test system: blackgrass (Alopecurus myosuroides); assay: as above
From the text: as §1, §2

[13] = test system: corn (Zea mays); assay: as above; details: for Corn plant response rating (0 to 100 scale): Postemergence
From the text: as §1, §2

[14] = test system: galium (catchweed bedstraw, Galium aparine); assay: as above; details: Postemergence
From the text: as §1, §2

[15] = test system: horseweed (Erigeron canadensis); assay: as above; details: Postemergence
From the text: as §1, §2

[16] = test system: kochia (Bassia scoparia); assay: as above
From the text: as §1, §2

[17] = test system: oat, wild (wild oat, Avena fatua); assay: as above; details: for Oat, Wild plant response rating (0 to 100 scale): Postemergence
From the text: as §1, §2

[18] = test system: palmer (palmer amaranth, palmer pigweed, Amaranthus palmeri); assay: as above
From the text: as §1, §2

[19] = test system: ragweed (common ragweed, Ambrosia artemisiifolia); assay: as above; details: for Ragweed plant response rating (0 to 100 scale): Postemergence
From the text: as §1, §2

[20] = test system: ryegrass, Italian (italian ryegrass, Lolium multiflorum); assay: as above; details: for Ryegrass, Italian plant response rating (0 to 100 scale): Postemergence
From the text: as §1, §2

[21] = test system: soybean (Glycine max); assay: as above; details: for Soybean plant response rating (0 to 100 scale): Postemergence
From the text: as §1, §2

[22] = test system: wheat (Triticum aestivum); assay: as above; details: for Wheat plant response rating (0 to 100 scale): Postemergence
From the text: as §1, §2

[23] = test system: green foxtail (Setaria viridis); assay: Test A preemergence soil spray, visual injury rating 0-100; details: 10 days
From the text: as §1, §2

[24] = test system: green foxtail (Setaria viridis); assay: Test A postemergence application, visual injury rating 0-100
From the text: as §1, §2

[25] = test system: barnyardgrass (Echinochloa crusgalli); assay: Test B flooded paddy test, visual plant response rating 0-100; details: 250 g ai/ha, Flood, applied to paddy water, evaluated after 13 days
Description: (§3) Plant species in the flooded paddy test selected from barnyardgrass (Echinochloa crusgalli), ducksalad (Heteranthera limosa), rice (Oryza sativa), and sedge, umbrella (small-flower umbrella sedge, Cyperus difformis) were grown to the 2-leaf stage for testing. At time of treatment, test pots were flooded to 3 cm above the soil surface, treated by application of test compounds directly to the paddy water, and then maintained at that water depth for the duration of the test. Treated plants and controls were maintained in a greenhouse for 13 days, after which time all species were compared to controls and visually evaluated. […] A dash (-) response means no test result.

[26] = test system: ducksalad (Heteranthera limosa); assay: as above; details: 250 g ai/ha, Flood, applied to paddy water, evaluated after 13 days
Description: as §3

[27] = test system: rice (Oryza sativa); assay: as above; details: 250 g ai/ha, Flood, applied to paddy water, evaluated after 13 days
Description: as §3

[28] = test system: sedge, umbrella (small-flower umbrella sedge, Cyperus difformis); assay: as above; details: 250 g ai/ha, Flood, applied to paddy water, evaluated after 13 days
Description: as §3

[29] = Postemergence, 31 g ai/ha, greenhouse 10 days, 0 no effect, 100 complete control
[30] = Postemergence, 125 g ai/ha, 10 days, 0 is no effect, 100 is complete control
[31] = 31 g ai/ha, greenhouse 10 days, 0 no effect, 100 complete control
[32] = 125 g ai/ha, 10 days, 0 is no effect, 100 is complete control
[33] = 62 g ai/ha, 0 = no effect, 100 = complete control
[34] = 62 g ai/ha, postemergence, 10 days, 0 = no effect, 100 = complete control
[35] = Postemergence, 16 g ai/ha, greenhouse 10 days, 0 no effect, 100 complete control
[36] = 16 g ai/ha, greenhouse 10 days, 0 no effect, 100 complete control
[37] = 1000 g ai/ha, 0 = no effect, 100 = complete control
[38] = Postemergence, 1000 g ai/ha, 0 to 100 scale, 10 days
[39] = 1000 g ai/ha, 0 to 100 scale, 10 days

CC1(C(=O)NC2C=CC(C(=O)NS(=O)(=O)c3ccccc3)C2)CN(c2cc(Cl)cc(Cl)c2)C(=O)O1 (centres unmarked) [Compound 86]
Barnyardgrass plant response rating ([1]; 31 g ai/ha): 30
Blackgrass plant response rating ([2]; 31 g ai/ha): 0
Corn plant response rating ([3]; 31 g ai/ha): 0
Kochia plant response rating ([4]; 31 g ai/ha): 40
Oat, Wild plant response rating ([5]; 31 g ai/ha): 0
Amaranth, Palmer (Pigweed, Palmer) plant response rating ([6]; 31 g ai/ha, 0 to 100 scale): 70
Ragweed plant response rating ([7]; 31 g ai/ha): 10
Ryegrass, Italian plant response rating ([8]; 31 g ai/ha): 0
Soybean plant response rating ([9]; 31 g ai/ha): 0
Wheat plant response rating ([10]; 31 g ai/ha): 0
Barnyardgrass plant response rating (0 to 100 scale) [11, 29]: 90
Barnyardgrass plant response rating (0 to 100 scale) [11, 30]: 90
Blackgrass plant response rating (0 to 100 scale) [12, 29]: 30
Blackgrass plant response rating (0 to 100 scale) [12, 30]: 70
Corn plant response rating (0 to 100 scale) [13, 31]: 90
Corn plant response rating (0 to 100 scale) [13, 32]: 100
Galium plant response rating (0 to 100 scale) [14, 31]: 70
Galium plant response rating (0 to 100 scale) [14, 32]: 80
Horseweed plant response rating (0 to 100 scale) [15, 31]: 40
Horseweed plant response rating (0 to 100 scale) [15, 32]: 50
Kochia plant response rating (0 to 100 scale) [16, 29]: 80
Kochia plant response rating (0 to 100 scale) [16, 30]: 90
Oat, Wild plant response rating (0 to 100 scale) [17, 31]: 60
Oat, Wild plant response rating (0 to 100 scale) [17, 32]: 90
Amaranth, Palmer / Pigweed, Palmer plant response rating (0 to 100 scale) [18, 29]: 90
Amaranth, Palmer / Pigweed, Palmer plant response rating (0 to 100 scale) [18, 30]: 90
Ragweed plant response rating (0 to 100 scale) [19, 31]: 60
Ragweed plant response rating (0 to 100 scale) [19, 32]: 80
Ryegrass, Italian plant response rating (0 to 100 scale) [20, 31]: 60
Ryegrass, Italian plant response rating (0 to 100 scale) [20, 32]: 70
Soybean plant response rating (0 to 100 scale) [21, 31]: 20
Soybean plant response rating (0 to 100 scale) [21, 32]: 60
Wheat plant response rating (0 to 100 scale) [22, 31]: 60
Wheat plant response rating (0 to 100 scale) [22, 32]: 80

CCOC(=O)C1=CCC(NC(=O)C2(C)CN(c3cc(F)cc(F)c3)C(=O)O2)C1 (centres unmarked) [Compound 111]
Barnyardgrass plant response rating ([1]; 16 g ai/ha): 0
Barnyardgrass plant response rating (0-100) [1, 33]: 0
Blackgrass plant response rating ([2]; 16 g ai/ha): 0
Blackgrass plant response rating (0-100) [2, 33]: 0
Corn plant response rating ([3]; 16 g ai/ha): 0
Corn plant response rating (0-100) [3, 33]: 0
Foxtail, Green plant response rating ([23]; 16 g ai/ha, 0 to 100 scale): 0
Foxtail, Green plant response rating (0-100) [23, 33]: 0
Kochia plant response rating ([4]; 16 g ai/ha): 0
Kochia plant response rating (0-100) [4, 33]: 0
Oat, Wild plant response rating ([5]; 16 g ai/ha): 0
Oat, Wild plant response rating (0-100) [5, 33]: 0
Pigweed, Palmer plant response rating ([6]; 16 g ai/ha, 0 to 100 scale): 0
Ragweed plant response rating ([7]; 16 g ai/ha): 0
Ragweed plant response rating (0-100) [7, 33]: 0
Ryegrass, Italian plant response rating ([8]; 16 g ai/ha): 0
Ryegrass, Italian plant response rating (0-100) [8, 33]: 0
Soybean plant response rating ([9]; 16 g ai/ha): 100
Soybean plant response rating (0-100) [9, 33]: 0
Wheat plant response rating ([10]; 16 g ai/ha): 0
Wheat plant response rating (0-100) [10, 33]: 0
Barnyardgrass plant response rating (0-100) [11, 34]: 20
Barnyardgrass plant response rating (0 to 100 scale) [11, 35]: 0
Blackgrass plant response rating (0-100) [12, 34]: 0
Blackgrass plant response rating (0 to 100 scale) [12, 35]: 0
Corn plant response rating (0-100) [13, 34]: 0
Corn plant response rating (0 to 100 scale) [13, 36]: 0
Foxtail, Green plant response rating (0-100) [24, 34]: 0
Foxtail, Green plant response rating (0 to 100 scale) [24, 35]: 0
Kochia plant response rating (0-100) [16, 34]: 0
Kochia plant response rating (0 to 100 scale) [16, 35]: 0
Oat, Wild plant response rating (0-100) [17, 34]: 0
Oat, Wild plant response rating (0 to 100 scale) [17, 36]: 0
Pigweed, Palmer plant response rating (0-100) [18, 34]: 10
Pigweed, Palmer plant response rating (0 to 100 scale) [18, 35]: 0
Ragweed plant response rating (0-100) [19, 34]: 0
Ragweed plant response rating (0 to 100 scale) [19, 36]: 0
Ryegrass, Italian plant response rating (0-100) [20, 34]: 0
Ryegrass, Italian plant response rating (0 to 100 scale) [20, 36]: 0
Soybean plant response rating (0-100) [21, 34]: 0
Soybean plant response rating (0 to 100 scale) [21, 36]: 0
Wheat plant response rating (0-100) [22, 34]: 20
Wheat plant response rating (0 to 100 scale) [22, 36]: 0
Plant response rating, Barnyardgrass (0 to 100 scale, 0 is no effect and 100 is complete control) [25]: 0
Plant response rating, Ducksalad (0 to 100 scale, 0 is no effect and 100 is complete control) [26]: 0
Plant response rating, Rice (0 to 100 scale, 0 is no effect and 100 is complete control) [27]: 0
Plant response rating, Sedge, Umbrella (0 to 100 scale, 0 is no effect and 100 is complete control) [28]: 0

CC1(C(=O)NC2C=CC(C(=O)O)C2)CN(c2cc(F)cc(F)c2)C(=O)N1 (centres unmarked) [Compound 179]
Barnyardgrass plant response rating (0 to 100 scale) [1, 37]: 100
Foxtail, Green plant response rating (0 to 100 scale) [23, 37]: 100
Kochia plant response rating (0 to 100 scale) [4, 37]: 100
Amaranth, Palmer / Pigweed, Palmer plant response rating (0 to 100 scale) [6, 37]: 60
Ryegrass, Italian plant response rating (0 to 100 scale) [8, 37]: 100
Barnyardgrass plant response rating [11, 38]: 100
Blackgrass plant response rating [12, 38]: 100
Galium plant response rating [14, 39]: 90
Foxtail, Green plant response rating [24, 38]: 90
Horseweed plant response rating [15, 39]: 80
Kochia plant response rating [16, 38]: 90
